Source: ChEMBL document CHEMBL1201862, “PubChem BioAssay data set” (2004)
“And” between values parts separate entries of the source, which are not always exact repeats. Identical values can stand only once.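 Protocol summary: plate cells (96-well), add compound at 5 concentrations, incubate 48 h, interpolate endpoints linearly. At the GI50, growth is halved.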 The source made the active and inactive calls. Rule as the data show it: active = GI50 up to about 1.1 µM and inactive = higher.

Tests used:
Assay in all cases: NCI tumour cell line growth inhibition, 48 h
786-0 = tested on: 786-0
A498 = tested on: A498
A549 = tested on: A549
ACHN = tested on: ACHN
CAKI-1 = tested on: CAKI-1
CCRF-CEM = tested on: CCRF-CEM
COLO 205 = tested on: COLO 205
DU-145 = tested on: DU-145
EKVX = tested on: EKVX
HCC 2998 = tested on: HCC 2998
HCT-116 = tested on: HCT-116
HCT-15 = tested on: HCT-15
HL-60 = tested on: HL-60
HOP-62 = tested on: HOP-62
HOP-92 = tested on: HOP-92
HT-29 = tested on: HT-29
IGROV-1 = tested on: IGROV-1
K562 = tested on: K562
KM12 = tested on: KM12
LOX IMVI = tested on: LOX IMVI
M14 = tested on: M14
MCF7 = tested on: MCF7
MDA-MB-231 = tested on: MDA-MB-231
MDA-MB-435 = tested on: MDA-MB-435
MDA-N = tested on: MDA-N
MOLT-4 = tested on: MOLT-4
Malme-3M = tested on: Malme-3M
NCI-H226 = tested on: NCI-H226
NCI-H23 = tested on: NCI-H23
NCI-H522 = tested on: NCI-H522
NCI/ADR-RES = tested on: NCI/ADR-RES
OVCAR-3 = tested on: OVCAR-3
OVCAR-4 = tested on: OVCAR-4
OVCAR-5 = tested on: OVCAR-5
OVCAR-8 = tested on: OVCAR-8
PC-3 = tested on: PC-3
RPMI-8226 = tested on: RPMI-8226
RXF 393 = tested on: RXF 393
SF-295 = tested on: SF-295
SF-539 = tested on: SF-539
SK-MEL-28 = tested on: SK-MEL-28
SK-MEL-2 = tested on: SK-MEL-2
SK-MEL-5 = tested on: SK-MEL-5
SK-OV-3 = tested on: SK-OV-3
SN12C = tested on: SN12C
SNB-19 = tested on: SNB-19
SNB-75 = tested on: SNB-75
SW-620 = tested on: SW-620
T47D = tested on: T47D
TK-10 = tested on: TK-10
U-251 = tested on: U-251
UACC-257 = tested on: UACC-257
UACC-62 = tested on: UACC-62
UO-31 = tested on: UO-31
Hs-578T = tested on: Hs-578T
SF-268 = tested on: SF-268
NCI-H460 = tested on: NCI-H460
SR = tested on: SR

Nc1ccccc1C(=O)NNC(=O)c1ccccc1N
GI50 (786-0): > 100 µM (inactive)
GI50 (A498): > 100 µM (inactive)
GI50 (A549): > 100 µM (inactive)
GI50 (ACHN): > 100 µM (inactive)
GI50 (CAKI-1): > 100 µM (inactive)
GI50 (CCRF-CEM): > 100 µM (inactive)
GI50 (COLO 205): > 100 µM (inactive)
GI50 (DU-145): > 100 µM (inactive)
GI50 (EKVX): > 100 µM (inactive)
GI50 (HCC 2998): > 100 µM (inactive)
GI50 (HCT-116): > 100 µM (inactive)
GI50 (HCT-15): > 100 µM
GI50 (HL-60): > 100 µM (inactive)
GI50 (HOP-62): > 100 µM (inactive)
GI50 (HOP-92): > 100 µM (inactive)
GI50 (HT-29): > 100 µM (inactive)
GI50 (IGROV-1): > 100 µM (inactive)
GI50 (K562): > 100 µM (inactive)
GI50 (KM12): > 100 µM (inactive)
GI50 (LOX IMVI): > 100 µM (inactive)
GI50 (M14): > 100 µM (inactive)
GI50 (MCF7): > 100 µM (inactive)
GI50 (MDA-MB-231): > 100 µM (inactive)
GI50 (MDA-MB-435): > 100 µM (inactive)
GI50 (MDA-N): > 100 µM (inactive)
GI50 (MOLT-4): > 100 µM (inactive)
GI50 (Malme-3M): > 100 µM (inactive)
GI50 (NCI-H226): > 100 µM (inactive)
GI50 (NCI-H23): > 100 µM (inactive)
GI50 (NCI-H522): > 100 µM (inactive)
GI50 (NCI/ADR-RES): > 100 µM (inactive)
GI50 (OVCAR-3): > 100 µM (inactive)
GI50 (OVCAR-4): > 100 µM (inactive)
GI50 (OVCAR-5): > 100 µM (inactive)
GI50 (OVCAR-8): > 100 µM (inactive)
GI50 (PC-3): > 100 µM (inactive)
GI50 (RPMI-8226): > 100 µM (inactive)
GI50 (RXF 393): > 100 µM (inactive)
GI50 (SF-295): > 100 µM (inactive)
GI50 (SF-539): > 100 µM (inactive)
GI50 (SK-MEL-28): > 100 µM (inactive)
GI50 (SK-MEL-2): > 100 µM (inactive)
GI50 (SK-MEL-5): > 100 µM (inactive)
GI50 (SK-OV-3): > 100 µM (inactive)
GI50 (SN12C): > 100 µM (inactive)
GI50 (SNB-19): > 100 µM (inactive)
GI50 (SNB-75): 35.5 µM (inactive)
GI50 (SW-620): > 100 µM (inactive)
GI50 (T47D): > 100 µM (inactive)
GI50 (TK-10): > 100 µM (inactive)
GI50 (U-251): > 100 µM (inactive)
GI50 (UACC-257): > 100 µM (inactive)
GI50 (UACC-62): > 100 µM (inactive)
GI50 (UO-31): > 100 µM (inactive)

O=C1N/C(=N/N=C\C(O)C(O)C(O)CO)N/C1=C/c1ccccc1 (stereo not drawn)
GI50 (786-0): 64 µM (inactive)
GI50 (A549): > 100 µM (inactive)
GI50 (ACHN): > 100 µM (inactive)
GI50 (CAKI-1): > 100 µM (inactive)
GI50 (COLO 205): > 100 µM (inactive)
GI50 (DU-145): > 100 µM (inactive)
GI50 (EKVX): > 100 µM (inactive) and 85.7 µM (inactive)
GI50 (HCC 2998): 51.6 µM (inactive)
GI50 (HOP-62): > 100 µM (inactive)
GI50 (HT-29): 50.1 µM (inactive)
GI50 (Hs-578T): > 100 µM (inactive)
GI50 (LOX IMVI): > 100 µM (inactive)
GI50 (MCF7): 34.4 µM (inactive) and 32.6 µM (inactive)
GI50 (MDA-MB-231): 60 µM (inactive)
GI50 (MDA-N): 53 µM (inactive)
GI50 (MOLT-4): 24 µM (inactive) and 39.6 µM (inactive)
GI50 (Malme-3M): 82 µM (inactive)
GI50 (NCI-H226): > 100 µM (inactive)
GI50 (NCI-H23): > 100 µM (inactive)
GI50 (NCI/ADR-RES): > 100 µM (inactive)
GI50 (OVCAR-5): > 100 µM (inactive)
GI50 (OVCAR-8): 65 µM (inactive)
GI50 (RXF 393): > 100 µM (inactive)
GI50 (SF-268): > 100 µM (inactive) and 62.7 µM (inactive)
GI50 (SK-MEL-2): > 100 µM (inactive)
GI50 (SK-OV-3): > 100 µM (inactive)
GI50 (SNB-19): > 100 µM (inactive)
GI50 (SNB-75): > 100 µM (inactive)
GI50 (TK-10): > 100 µM (inactive)
GI50 (U-251): > 100 µM (inactive) and 52.5 µM (inactive)
GI50 (UACC-257): > 100 µM (inactive)
GI50 (UO-31): > 100 µM (inactive)

CC(=O)CC(O)(C(F)(F)Cl)C(F)(Cl)Cl (stereo not drawn)
GI50 (786-0): > 10 µM (inactive)
GI50 (A498): > 10 µM (inactive)
GI50 (A549): > 10 µM (inactive)
GI50 (ACHN): > 10 µM (inactive)
GI50 (CAKI-1): > 10 µM (inactive)
GI50 (CCRF-CEM): > 10 µM (inactive)
GI50 (COLO 205): > 10 µM (inactive)
GI50 (DU-145): > 10 µM (inactive)
GI50 (EKVX): > 10 µM (inactive)
GI50 (HCC 2998): > 10 µM (inactive)
GI50 (HCT-116): > 10 µM (inactive)
GI50 (HCT-15): > 10 µM
GI50 (HL-60): > 10 µM (inactive)
GI50 (HOP-62): > 10 µM (inactive)
GI50 (HOP-92): > 10 µM (inactive)
GI50 (HT-29): > 10 µM (inactive)
GI50 (Hs-578T): > 10 µM (inactive)
GI50 (IGROV-1): > 10 µM (inactive)
GI50 (K562): > 10 µM (inactive)
GI50 (KM12): > 10 µM (inactive)
GI50 (LOX IMVI): > 10 µM (inactive)
GI50 (M14): > 10 µM (inactive)
GI50 (MCF7): > 10 µM (inactive)
GI50 (MDA-MB-231): > 10 µM (inactive)
GI50 (MDA-MB-435): > 10 µM (inactive)
GI50 (MDA-N): > 10 µM (inactive)
GI50 (Malme-3M): > 10 µM (inactive)
GI50 (NCI-H226): > 10 µM (inactive)
GI50 (NCI-H23): > 10 µM (inactive)
GI50 (NCI-H460): > 10 µM (inactive)
GI50 (NCI-H522): > 10 µM (inactive)
GI50 (NCI/ADR-RES): > 10 µM (inactive)
GI50 (OVCAR-3): > 10 µM (inactive)
GI50 (OVCAR-4): > 10 µM (inactive)
GI50 (OVCAR-8): > 10 µM (inactive)
GI50 (PC-3): > 10 µM (inactive)
GI50 (RXF 393): > 10 µM (inactive)
GI50 (SF-268): > 10 µM (inactive)
GI50 (SF-295): > 10 µM (inactive)
GI50 (SF-539): > 10 µM (inactive)
GI50 (SK-MEL-28): > 10 µM (inactive)
GI50 (SK-MEL-2): > 10 µM (inactive)
GI50 (SK-MEL-5): > 10 µM (inactive)
GI50 (SK-OV-3): > 10 µM (inactive)
GI50 (SN12C): > 10 µM (inactive)
GI50 (SNB-19): > 10 µM (inactive)
GI50 (SNB-75): > 10 µM (inactive)
GI50 (SW-620): > 10 µM (inactive)
GI50 (T47D): > 10 µM (inactive)
GI50 (TK-10): > 10 µM (inactive)
GI50 (U-251): > 10 µM (inactive)
GI50 (UACC-257): > 10 µM (inactive)
GI50 (UACC-62): > 10 µM (inactive)
GI50 (UO-31): > 10 µM (inactive)

COC(=O)CCc1c(Cc2ccc[nH]2)[nH]c(C(=O)OCc2ccccc2)c1C
GI50 (786-0): 16.3 µM (inactive)
GI50 (A498): 28.9 µM (inactive)
GI50 (A549): 33.4 µM (inactive)
GI50 (ACHN): 23.1 µM (inactive)
GI50 (CAKI-1): 25.1 µM (inactive)
GI50 (CCRF-CEM): 60.7 µM (inactive)
GI50 (COLO 205): 17.5 µM (inactive)
GI50 (DU-145): 75.3 µM (inactive)
GI50 (EKVX): 29.6 µM (inactive)
GI50 (HCT-116): 18.6 µM (inactive)
GI50 (HCT-15): 16.1 µM
GI50 (HOP-62): 19.5 µM (inactive)
GI50 (HOP-92): 23 µM (inactive)
GI50 (HT-29): 20.4 µM (inactive)
GI50 (Hs-578T): 22.6 µM (inactive)
GI50 (IGROV-1): 15.6 µM (inactive)
GI50 (K562): 25.5 µM (inactive)
GI50 (KM12): 16.3 µM (inactive)
GI50 (LOX IMVI): 19.7 µM (inactive)
GI50 (M14): 16.8 µM (inactive)
GI50 (MCF7): 18.5 µM (inactive)
GI50 (MDA-MB-231): 15.3 µM (inactive)
GI50 (MDA-MB-435): 18.3 µM (inactive)
GI50 (MDA-N): 18 µM (inactive)
GI50 (MOLT-4): 24.9 µM (inactive)
GI50 (Malme-3M): 18.9 µM (inactive)
GI50 (NCI-H226): 17.1 µM (inactive)
GI50 (NCI-H23): 21.2 µM (inactive)
GI50 (NCI-H460): > 100 µM (inactive)
GI50 (NCI-H522): 27.3 µM (inactive)
GI50 (NCI/ADR-RES): 20.6 µM (inactive)
GI50 (OVCAR-3): 15.8 µM (inactive)
GI50 (OVCAR-4): 11.9 µM (inactive)
GI50 (OVCAR-5): 35.9 µM (inactive)
GI50 (OVCAR-8): 24.8 µM (inactive)
GI50 (PC-3): 18.2 µM (inactive)
GI50 (RPMI-8226): 39.6 µM (inactive)
GI50 (RXF 393): 20.8 µM (inactive)
GI50 (SF-268): 23.2 µM (inactive)
GI50 (SF-295): 24.6 µM (inactive)
GI50 (SF-539): 19.1 µM (inactive)
GI50 (SK-MEL-28): 20.1 µM (inactive)
GI50 (SK-MEL-2): 15.4 µM (inactive)
GI50 (SK-MEL-5): 15.8 µM (inactive)
GI50 (SK-OV-3): > 100 µM (inactive)
GI50 (SN12C): 18.1 µM (inactive)
GI50 (SNB-19): 28.2 µM (inactive)
GI50 (SR): 30.8 µM (inactive)
GI50 (SW-620): 21.6 µM (inactive)
GI50 (TK-10): 26 µM (inactive)
GI50 (U-251): 22.3 µM (inactive)
GI50 (UACC-257): 18.4 µM (inactive)
GI50 (UACC-62): 26.4 µM (inactive)
